Assay results taken from patent US3950379A, “2-Cyano-diphenyl ethers” (Rohm and Haas Company, priority 1974, dated 1976).

Tests used:
Type in all cases: in vivo
Monocots [1] = assay: Herbicidal activity, preemergence, monocot weeds in flats (% control); details: pre-emergence, 336 h, about 2 weeks after application, percent of plants killed; for activity at 11208.5 g/ha: monocots (4 species, average), 10 lb./A.; for activity at 2241.7 g/ha / activity at 4483.4 g/ha: monocots (10 species, average); for activity at 2241.7 g/ha: 2 lb./A.; for activity at 4483.4 g/ha: 4 lb./A.
Protocol: (§1) Using the procedure described below, diphenyl ethers were evaluated for control of the following weeds: At 10 pounds per acre: […]
(§2) barnyardgrass (Echinochloa crusgalli) crabgrass (Digitaria spp.) nutsedge (Cyperus esculentus)
(§3) At 2 and 4 pounds per acre: […]
(§4) downy brome (Bromus tectorum) foxtail (Setaria faberii)
(§5) Johnsongrass (Sorghum halepense) […]
(§6) quackgrass (Agropyron repens) ryegrass (Lolium perenne) […]
(§7) yellow millet (Panicum miliaceum)
(§8) The following test procedure is employed. Seeds of selected crops and weeds are planted in soil in flats. For preemergence tests, the flats are treated with the test compound immediately after the planting. For post-emergence tests, the seeds are allowed to germinate, and after 2 weeks the flats are treated with the test compound. The compound to be evaluated is dissolved in acetone, diluted with water, and sprayed over the flats using a carrier volume equivalent to 50 gallons per acre at the rate of application (pounds per acre, lb/A.) specified in the tables. About 2 weeks after the application of the test compound, the state of growth of the plant is observed and the phytotoxic effect of the compound is evaluated. Table II gives the average percent control achieved by the test compounds in terms of the percent of the plants which are killed by the compounds.

Dicots [2] = assay: Herbicidal activity, preemergence, dicot weeds in flats (% control); details: pre-emergence, 336 h, dicots (4 species, average), 10 lb./A., about 2 weeks after application, percent of plants killed
Protocol: as §1
(§9) bindweed (Convolvulus arvensis) curly dock (Rumex crispus) velvetleaf (Abutilon theophrasti) wild mustard (Brassica haber)
as §3
(§10) cocklebur (Xanthium pensylvanicum) […]
(§11) lambsquarters (Chenopodium album) morningglory (Ipomoea purpurea) pigweed (Amaranthus retroflexus) smartweed (Polygonum pensylvanicum) […]
(§12) wild carrot (Daucus carota)
as §8

Monocots [3] = assay: Herbicidal activity, postemergence, monocot weeds in flats (% control); details: post-emergence, 336 h, about 2 weeks after application, percent of plants killed; for activity at 11208.5 g/ha: monocots (4 species, average), 10 lb./A.; for activity at 2241.7 g/ha / activity at 4483.4 g/ha: monocots (10 species, average); for activity at 2241.7 g/ha: 2 lb./A.; for activity at 4483.4 g/ha: 4 lb./A.
Protocol: as §1, §2, §3, §4, §5, §6, §7, §8

Dicots [4] = assay: Herbicidal activity, postemergence, dicot weeds in flats (% control); details: post-emergence, 336 h, dicots (4 species, average), 10 lb./A., about 2 weeks after application, percent of plants killed
Protocol: as §1, §9, §3, §10, §11, §12, §8

Dicots [5] = assay: Herbicidal activity, preemergence, dicot weeds in flats (% control); details: pre-emergence, 336 h, dicots (10 species, average), about 2 weeks after application, percent of plants killed; for activity at 2241.7 g/ha: 2 lb./A.; for activity at 4483.4 g/ha: 4 lb./A.
Dicots [6] = assay: Herbicidal activity, postemergence, dicot weeds in flats (% control); details: post-emergence, 336 h, dicots (10 species, average), about 2 weeks after application, percent of plants killed; for activity at 2241.7 g/ha: 2 lb./A.; for activity at 4483.4 g/ha: 4 lb./A.

SMILES | activity at 11208.5 g/ha (Monocots [1]) [%] | activity at 2241.7 g/ha (Monocots [1]) [%] | activity at 4483.4 g/ha (Monocots [1]) [%] | activity at 11208.5 g/ha (Dicots [2]) [%] | activity at 11208.5 g/ha (Monocots [3]) [%] | activity at 2241.7 g/ha (Monocots [3]) [%] | activity at 4483.4 g/ha (Monocots [3]) [%] | activity at 11208.5 g/ha (Dicots [4]) [%] | activity at 2241.7 g/ha (Dicots [5]) [%] | activity at 4483.4 g/ha (Dicots [5]) [%] | activity at 2241.7 g/ha (Dicots [6]) [%] | activity at 4483.4 g/ha (Dicots [6]) [%]
N#Cc1cc(C(F)(F)F)ccc1Oc1ccc(Cl)c(Cl)c1 [Example 7] | 0 | 56 | 66 | 0 | 40 | 36 | 36 | 77 | 65 | 41 | 55 | 64
N#Cc1cc(C(F)(F)F)ccc1Oc1ccc(C(F)(F)F)cc1 [Example 6, 2-cyano-α, α, α-trifluoro-p-tolyl-α,α,α-trifluoro-p-tolyl ether] | 0 | 34 |  | 10 | 70 | 34 |  | 75 | 5 |  | 49 | 
N#Cc1cc(C(F)(F)F)ccc1Oc1ccc(Br)cc1 [Example 4, 2-cyano-α, α, α-trifluoro-p-tolyl-4-bromophenyl ether] | 5 | 51 | 67 | 0 | 22 | 34 | 34 | 85 | 34 | 37 | 50 | 56
N#Cc1cc(C(F)(F)F)ccc1Oc1ccc(Cl)cc1 [Example 3, 2-cyano-α,α,α-trifluoro-p-tolyl-4-chlorophenylether] | 10 | 65 | 59 | 10 | 17 | 27 | 9 | 75 | 61 | 40 | 50 | 38
N#Cc1cc(F)ccc1Oc1ccc([N+](=O)[O-])cc1 [Example 1, 2-cyano-4-fluoro-4'-nitrodiphenyl ether] | 77 |  | 47 | 77 | 95 |  | 44 | 100 |  | 51 |  | 58
N#Cc1cc(Cl)ccc1Oc1ccc([N+](=O)[O-])cc1 [Example 2] | 81 |  | 49 | 95 | 95 |  | 44 | 100 |  | 55 |  | 64
N#Cc1ccc(Oc2ccc(C(F)(F)F)cc2C#N)cc1 [Example 5] | 70 | 42 | 44 | 77 | 25 | 48 | 11 | 65 | 47 | 50 | 59 | 41
